Data on two molecules can be found in patent US20250127784A1, “Treatment of Telangiectasia” (IMPERIAL COLLEGE INNOVATIONS LIMITED, priority 2022, published 2025).

For series [1] the following is noted: dose of 2 mg/day; cited from earlier work.
Series [2] has as its system HHT-associated haemorrhage (nosebleeds) and anaemia in ENG+/− HHT patient. Nature of the series: Clinical case: HHT patient treated with trametinib, nosebleeds and transfusion-dependent anaemia. The settings on record: for nosebleed frequency grade/category for HHT patients (Shovlin 2010, N=202): pre: highest category.
Series [3] relates to pulmonary arteriovenous malformations (PAVMs) of the HHT patient. The series is described as follows: Blinded thoracic CT scan comparison of pulmonary AVMs before and after trametinib. The format is in vivo, human. To be noted: for effect on pulmonary AVMs (CT scans): 1 month before versus after 10 months of trametinib treatment; for size of venous sac #7: 13 mm at T−2 ys, 15 mm at T−1M. Here is the method:
Thoracic CT scan images taken for clinical purposes were compared before Trametinib (−10 years (T−10 yrs), −2 years (T−2ys), −1 month (T−1M)), and after Trametinib for 4 months (T+4M), 10 months (T+10M) and 18 months (T+18M, data not shown).
Blinded analysis of the CT scans was conducted by an expert Imperial Thoracic Radiologist to address the question of “whether the PAVMs have stayed the same, got better, or got worse?”

The subject of series [4] is MEK1/2 transcript levels in control and ENG+/− BOECs. The series is described as follows: RNASeq of blood outgrowth endothelial cells (BOECs) treated by BMP9: MEK1/2. The format is cell-based, human. To be noted: treated by BMP9 for 1 hour versus untreated, RBM45-normalised. Here is the method:
FIG. 9: RNASeq data in HHT and control endothelial cells for MAP2K1 encoding MEK1 from 16 cultures of blood outgrowth endothelial cells (BOECs: 4 controls, and 12 from the HHT genotypes ACVRL1^+/−, ENG^+/− and SMAD4^+/−). Data were RBM45-normalised which normalises for PTC-induced stress. A All BOECs, B Control and ENG BOECs; C Control and ENG BOECs untreated (unRx) and treated (Rx) by BMP9 for 1 hour. Bars: mean and standard deviation; circles: individual cultures.
FIG. 10: RNASeq data in HHT and control endothelial cells for MAP2K2 encoding MEK2 from 16 cultures of blood outgrowth endothelial cells (BOECs: 4 controls, and 12 from the HHT genotypes ACVRL1^+/−, ENG^+/− and SMAD4^+/−). Data were RBM45-normalised which normalises for PTC-induced stress. A All BOECs, B Control and ENG BOECs; C Control and ENG BOECs untreated (unRx) and treated (Rx) by BMP9 for 1 hour. Bars: mean and standard deviation; circles: individual cultures.
RNAseq was carried out on BOECs from HHT patients and healthy controls to investigate MEK1/MEK2 transcription levels, using RBM45 normalisation to normalise for PTC-related stress.

Series [5] has as its system MAP3K1 transcripts in BOECs. The series is described as follows: RNASeq of blood outgrowth endothelial cells (BOECs) treated by BMP9: MAP3K1. The format is cell-based, human. The settings on record: all BOECs (N=16), treated by BMP9 for 1 hour versus untreated. Here is the method: FIG. 8: MAP3K1 RNASeq data in HHT and control endothelial cells from 16 cultures of blood outgrowth endothelial cells (BOECs: 4 controls, and 12 from the HHT genotypes ACVRL1^+/−, ENG^+/− and SMAD4^+/−). Data were RBM45-normalised. A Untreated BOECs (N=8). B All BOECs (N=16), untreated (unRx), and treated (Rx) by BMP9 for 1 hour. Bars: mean and standard deviation; circles: individual cultures.
To test this hypothesis, further RNASeq analysis of blood outgrowth endothelial cells (BOECs) from HHT patients was carried out. It has previously been shown that the Shovlin group established BOECs from controls and patients of all 3 HHT genotypes (ENG^+/−, ACVRL1^+/− and SMAD4^+/−); extracted RNA from replicate cultures; and developed novel methodologies to interpret primary alignment data generated by sequencing alignments to Homo sapiens human genome build 38 (GRCh38). […]
To test this hypothesis, further RNAseq analysis of blood outgrowth endothelial cells (BOECs) from HHT patients was carried out, and the relative expression levels of TGFβ/BMP9 signalling inhibitors was investigated. […] RNA had been extracted from replicate cultures; sequenced and aligned to Homo sapiens human genome build 38 (GRCh38), and unique gene reads normalised to total alignment counts per library initially further normalised using the Shovlin-group validated, lowest Gini Coefficient (GC) housekeeper gene RBM45 […]

Entries after “also recorded” stand apart in the source; their conditions may differ.

In the case of `CC(=O)Nc1cccc(-n2c(=O)n(C3CC3)c(=O)c3c(Nc4ccc(I)cc4F)n(C)c(=O)c(C)c32)c1` [trametinib, N-(3-{3-Cyclopropyl-5-[(2-fluoro-4-iodophenyl)amino]-6,8-dimethyl-2,4,7-trioxo-3,4,6,7-tetrahydropyrido[4,3-d]pyrimidin-1(2H)-yl}phenyl)acetamide], in series [1], the elimination half-life was 93.6 to 115 h. Further, the “overall effect on HHT telangiectasia, nosebleeds (haemorrhage) and anaemia” value in series [2] (ENG+/− HHT patient, trametinib treatment) was “treats telangiectasia, and particularly anaemia and haemorrhage associated with telangiectasia in HHT; also recorded: clinically important improvement in nosebleeds and anaemia; also recorded: elicited an improvement in HHT-associated haemorrhage (nosebleeds) and anaemia”. Besides, the “maximum nose bleed frequency, two most severe categories (daily or weekly)” value in series [2] (after 10 months of trametinib treatment) is given as “no longer fitted into either of these categories”. The “haemorrhage adjusted iron requirement (HAIR) grouping (Finnamore 2013, N=50)” value in series [2] (after 10 months of trametinib, pre: 4th highest grouping) is reported as “lowest grouping”. In addition, the “nosebleed frequency grade/category for HHT patients (Shovlin 2010, N=202)” value is recorded as 3rd lowest frequency grade in series [2] (after 10 months of trametinib) and “third lowest category” in series [2] (after 10 months of trametinib, listed as Trametinib). Further, the “haemorrhage adjusted iron requirement (HAIR) quintile (Finnamore 2013, N=50)” value in series [2] (after 10 months of trametinib, pre: highest quintile) is “lowest quintile”. In addition, the intensity of nosebleeds result in series [2] (after 10 months trametinib treatment) is “brief trickles”. Further, the nosebleed frequency result in series [2] (after 10 months trametinib treatment, before: several times per week to multiple times per day) was “no more than once per month”. In series [2] (after 10 months trametinib treatment, previously every 3 weeks), the “blood (red cell) transfusion requirement for anaemia” value was “transfusions were not required even at extended assessment times”. In series [2] (after 10 months trametinib treatment, previously transfusions every 3 weeks), the transfusion assessment interval amounted to 8 weekly. The “nosebleeds (frequency and intensity), maintained frequency” value in series [2] (at 18 and 24 months of trametinib treatment) is recorded as “approximately one a year”. In addition, the “haemorrhage adjusted iron requirement (HAIR)” value in series [2] (at 18 and 24 months of trametinib treatment (not shown)) is given as “reduced”. In addition, the “side effects, adverse event grade (CTCAE version 5.0)” value in series [2] (standard chemotherapeutic regimen, HHT patient with cancer) was “Grade 1”. Moreover, the “effect on pulmonary AVMs (CT scans)” value is “has no effect on the patient's AVMs; also recorded: pulmonary AVMs did not improve” in series [3] and “No pulmonary AVMs improved; also recorded: had no effect on the PAVMs; also recorded: within the error of CT, but with a probable slight increase in size” in series [3] (listed as Trametinib). For the same molecule, the “size of venous sac #7” value came out at 16 mm in series [3] (T+4M (trametinib for 4 months)) and 16.6 mm in series [3] (T+10M (trametinib for 10 months)). Also, the “number of the 11 main pulmonary AVMs possibly slightly larger” value in series [3] (scans 1 month before trametinib and 11 months later, after 10 months of treatment) turned out to be 4.

B1: BMP9: bone morphogenetic protein 9 (aka growth and differentiation factor 2, GDF2); causal ligand for HHT, used to treat BOECs for 1 hour (protein, UniProt Q9UK05 320-429, looked up)
Growth/differentiation factor …: SAGAGSHCQKTSLRVNFEDIGWDSWIIAPKEYEAYECKGGCFFPLADDVTPTKHAIVQTLVHLKFPTKVGKACCVPTKLSPISVLYKDDMGVPTLKYHYEGMSVAECGCR
In the case of B1, the “MEK1/2 transcript levels (RNASeq)” value in series [4] is reported as “no effect”. Also, the “MAP3K1 transcripts (RNASeq)” value in series [5] is recorded as “significantly increased”.
